Source: patent US20180000719A1, “A SKIN LIGHTENING COMPOSITION COMPRISING NIACINAMIDE AND ILOMASTAT” (Conopco, Inc., d/b/a UNILEVER, priority 2014, published 2018)

Tests used:
[1] = biological target: T1, Tyrosinase enzyme (Homo sapiens, UniProt P14679); experiment: In vitro human tyrosinase activity assay (melanocytic lysate); format: biochemical
T1 construct: Primary human melanocytic lysate was used as a source of Tyrosinase enzyme; endogenous in cells; host or cells: primary human melanocytes (lysate)
T1 sequence (P14679 19-529): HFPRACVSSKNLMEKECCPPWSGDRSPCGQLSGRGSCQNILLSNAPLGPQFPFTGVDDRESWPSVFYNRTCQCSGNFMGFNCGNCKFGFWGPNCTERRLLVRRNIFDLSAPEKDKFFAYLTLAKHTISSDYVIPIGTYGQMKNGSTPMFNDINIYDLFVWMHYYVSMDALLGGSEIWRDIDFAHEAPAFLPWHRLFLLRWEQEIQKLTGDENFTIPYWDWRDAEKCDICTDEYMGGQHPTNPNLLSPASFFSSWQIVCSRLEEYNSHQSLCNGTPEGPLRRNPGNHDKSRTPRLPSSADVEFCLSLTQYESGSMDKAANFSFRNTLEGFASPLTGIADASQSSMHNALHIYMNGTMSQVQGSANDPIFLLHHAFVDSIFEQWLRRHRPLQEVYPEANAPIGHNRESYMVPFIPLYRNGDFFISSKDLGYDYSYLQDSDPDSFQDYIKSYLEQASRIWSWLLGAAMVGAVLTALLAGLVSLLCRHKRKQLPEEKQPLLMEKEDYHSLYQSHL
Description: (v) In Vitro Human Tyrosinase Activity Assay: • Primary human melanocytic lysate was used as a source of Tyrosinase enzyme. Human melanocytic lysate and test actives (at different concentrations) were incubated together for 15 mins, prior to addition of Tyrosine/DOPA substrate mix. Assay plate was then incubated at 37° C. for ˜14-16 hrs. Optical Density was measured at 405 nm and % Inhibition calculated.

[2] = test system: primary human melanocytes; experiment: cells
Description: (i) Cell Cultures: • Neonatal foreskin primary human melanocytes were procured from Life Technologies, USA. Cells were grown in Medium 254 supplemented with human melanocyte growth supplement-2 and maintained at 37° C. in a humidified incubator with 5% CO2 atmosphere. The maintenance and sub culturing of cells were carried out as per the manufacturer's instructions. Cells between passages 3-6 were used for experimentation.
(ii) Active Addition: • Cells were seeded at a density of 5×10^4/well in a 24 well plate in Melanocyte Growth Media (MGM) and incubated for 24 hrs at 37° C./5% CO2. Actives were added to cells along with relevant controls.
(iii) Cell Viability Assay • Briefly, spent media was removed and cells washed once with 0.2 ml of 1×PBS-Ca—Mg solution. Fresh 1 μM calcein-AM in PBS buffer was added to each well. Plates were incubated for 30 min. at 37° C. in a CO2 incubator. Calcein fluorescence was then measured (excitation at 490 nm and emission at 520 nm) in TECAN M1000 plate reader.
(iv) Melanin Content Assay: • After Calcein measurements, cultures were rinsed with PBS (1×) and lysed for 1 hour at 60° C. in a shaker incubator using NaOH/DMSO mix. Melanin content was measured in a Tecan plate reader (405 nm filter), corrected for cell numbers and represented as % inhibition.

[3] = Homo sapiens, Melanocyte, 72 h, read-out: Average % inhibition in cellular melanin

Row | SMILES | inhibition at 10 µM ([1]; 0.01 mM Niacinamide) | inhibition at 100 µM ([1]; 0.1 mM Niacinamide) | inhibition at 1000 µM ([1]; 1 mM Niacinamide) | inhibition at 10000 µM ([1]; 10 mM Niacinamide) | inhibition at 50000 µM ([1]; 50 mM Niacinamide) | inhibition at 1000 µM [2, 3] | inhibition at 10000 µM [2, 3] | inhibition at 1 µM [2, 3] | inhibition at 10 µM [2, 3] | reduction of melanin content in primary human melanocytes (in words) ([2]; galardin by itself at 1 μM) | reduction of melanin content in primary human melanocytes (in words) ([2]; galardin by itself at 10 μM)
1 | NC(=O)c1cccnc1 [Niacinamide, pyridine-3-carboxamide] | 2% | 2% | 4% | -8% | -20% | -7% | 16% | – | – | – | –
2 | CNC(=O)[C@H](Cc1c[nH]c2ccccc12)NC(=O)[C@@H](CC(=O)NO)CC(C)C [Galardin, (R)—N4-Hydroxy-N1-[(S)-2-(1H-indol-3-yl)-1-methylcarbamoyl-ethyl]-2-isobutyl-succinamide] | – | – | – | – | – | – | – | 6% | 17% | no reduction | modest reduction
